≈ marks a conversion by molar mass, not a printed value. Calls of active or inactive are those of the source. The calls are words filed in the database; no cut-off is given here. Where a SMILES comes first, the peptide text is derived from it. The star is where a group is joined. Stearoyl = CCCCCCCCCCCCCCCCCC(=O)*; Myristoyl = CCCCCCCCCCCCCC(=O)*; Decanoyl = CCCCCCCCCC(=O)*
Columns and labels:
Candida albicans = assay: Antimicrobial activity against Candida albicans ATCC 14053 after 17 to 20 hrs by serial dilution method; type: functional
Escherichia coli = assay: Antimicrobial activity against Escherichia coli ATCC 25922 after 17 to 20 hrs by serial dilution method; type: functional
[1] = Cytotoxicity in human erythrocytes assessed as hemolysis at 125 ug/ml after 1 hr relative to control; type: cell-based, Erythrocyte; settings: read-out: Activity
Staphylococcus aureus = assay: Antimicrobial activity against Staphylococcus aureus ATCC 12600 after 17 to 20 hrs by serial dilution method; type: functional
[2] = Cytotoxicity in human erythrocytes assessed as hemolysis at 250 ug/ml after 1 hr relative to control; type: cell-based, Erythrocyte; settings: read-out: Activity
Priestia megaterium = assay: Binding affinity to Bacillus megaterium pHis1525 DNA at 25 to 50 ug/ml after 30 mins by agarose gel electrophoresis

Structure (SMILES) | MIC (Candida albicans) [µg/mL] | MIC (Escherichia coli) [µg/mL] | hemolysis at 1 h, 125 ug/ml [1] [%] | MIC (Staphylococcus aureus) [µg/mL] | hemolysis at 1 h, 250 ug/ml [2] [%] | Activity (Priestia megaterium)
CCCCCCCCCCCCCC(=O)N[C@@H](CCCCN)C(=O)N[C@@H](Cc1c[nH]c2ccccc12)C(=O)N[C@@H](CCCCN)C(=O)N[C@@H](Cc1c[nH]c2ccccc12)C(N)=O (Myristoyl-KWKW-NH2) | > 62.5 | 7.8 (≈ 9.11 µM) | 17 | 3.9 (≈ 4.56 µM) | – | –
CCCCCCCCCCCCCC(=O)N[C@@H](CCCNC(=N)N)C(=O)N[C@H](C(=O)N[C@@H](CCCCN)C(=O)N[C@@H](Cc1c[nH]c2ccccc12)C(=O)N[C@@H](CCCCN)C(N)=O)[C@@H](C)CC (Myristoyl-RIKWK-NH2) | > 62.5 | 15.6 (≈ 16.6 µM) | – | 15.6 (≈ 16.6 µM) | 20 | –
CCCCCCCCCC(=O)N[C@@H](CCCCN)C(=O)N[C@@H](Cc1c[nH]c2ccccc12)C(=O)N[C@@H](CCCCN)C(N)=O (Decanoyl-Lys-Trp-Lys-NH2) | > 62.5 | > 31.2 | – | 31.2 (≈ 50.8 µM) | < 10 | –
CCCCCCCCCC(=O)N[C@@H](CCCCN)C(=O)N[C@@H](Cc1c[nH]c2ccccc12)C(=O)N[C@@H](CCCCN)C(=O)N[C@@H](Cc1c[nH]c2ccccc12)C(N)=O (Decanoyl-KWKW-NH2) | 31.2 (≈ 39 µM) | 7.8 (≈ 9.75 µM) | – | 7.8 (≈ 9.75 µM) | – | Active
CCCCCCCCCCCCCC(=O)N[C@@H](CCCCN)C(=O)N[C@@H](Cc1c[nH]c2ccccc12)C(=O)N[C@@H](CCCCN)C(N)=O (Myristoyl-Lys-Trp-Lys-NH2) | > 62.5 | 7.8 (≈ 11.6 µM) | 11 | 7.8 (≈ 11.6 µM) | 19 | –
CCCCCCCCCCCCCC(=O)N[C@@H](CCCNC(=N)N)C(=O)N[C@@H](CCCCN)C(=O)N[C@@H](Cc1c[nH]c2ccccc12)C(=O)N[C@@H](Cc1c[nH]c2ccccc12)C(=O)N[C@@H](CCCCN)C(N)=O (Myristoyl-RKWWK-NH2) | > 62.5 | 15.6 (≈ 15.4 µM) | – | 7.8 (≈ 7.7 µM) | – | –
CCCCCCCCCC(=O)N[C@@H](CCCCN)C(=O)N[C@H](C(=O)N[C@@H](CCCNC(=N)N)C(=O)N[C@@H](Cc1c[nH]c2ccccc12)C(=O)N[C@@H](Cc1c[nH]c2ccccc12)C(=O)N[C@@H](CCCNC(=N)N)C(N)=O)[C@@H](C)CC (Decanoyl-KIRWWR-NH2) | > 62.5 | 15.6 (≈ 14.2 µM) | – | 3.9 (≈ 3.55 µM) | – | –
CCCCCCCCCCCCCCCCCC(=O)N[C@@H](CCCCN)C(=O)N[C@@H](CCCCN)C(=O)N[C@@H](Cc1c[nH]c2ccccc12)C(=O)N[C@@H](CCCCN)C(N)=O (Stearoyl-KKWK-NH2) | 31.2 (≈ 36.5 µM) | 31.2 (≈ 36.5 µM) | – | 31.2 (≈ 36.5 µM) | – | –
CCCCCCCCCCCCCCCCCC(=O)N[C@@H](CCCNC(=N)N)C(=O)N[C@H](C(=O)N[C@@H](CCCCN)C(=O)N[C@@H](Cc1c[nH]c2ccccc12)C(=O)N[C@@H](Cc1c[nH]c2ccccc12)C(=O)N[C@@H](CCCCN)C(N)=O)[C@@H](C)CC (Stearoyl-RIKWWK-NH2) | > 62.5 | > 31.2 | – | 31.2 (≈ 26.4 µM) | – | –
CCCCCCCCCCCCCCCCCC(=O)N[C@@H](CCCNC(=N)N)C(=O)N[C@@H](Cc1c[nH]c2ccccc12)C(=O)N[C@@H](Cc1c[nH]c2ccccc12)C(=O)N[C@@H](CCCNC(=N)N)C(N)=O (Stearoyl-RWWR-NH2) | > 62.5 | > 31.2 | – | 31.2 (≈ 32.2 µM) | – | –
CCCCCCCCCC(=O)N[C@@H](CCCNC(=N)N)C(=O)N[C@H](C(=O)N[C@@H](CCCCN)C(=O)N[C@@H](Cc1c[nH]c2ccccc12)C(=O)N[C@@H](Cc1c[nH]c2ccccc12)C(=O)N[C@@H](CCCCN)C(N)=O)[C@@H](C)CC (Decanoyl-RIKWWK-NH2) | > 62.5 | 7.8 (≈ 7.29 µM) | – | 3.9 (≈ 3.65 µM) | – | Active
CCCCCCCCCCCCCC(=O)N[C@@H](CCCCN)C(=O)N[C@@H](Cc1c[nH]c2ccccc12)C(=O)N[C@@H](Cc1c[nH]c2ccccc12)C(=O)N[C@@H](CCCCN)C(N)=O (Myristoyl-KWWK-NH2) | 15.6 (≈ 18.2 µM) | 7.8 (≈ 9.11 µM) | 56 | 3.9 (≈ 4.56 µM) | – | –
CCCCCCCCCC(=O)N[C@@H](CCCCN)C(=O)N[C@@H](CCCCN)C(=O)N[C@H](C(=O)N[C@@H](CCCNC(=N)N)C(=O)N[C@@H](Cc1c[nH]c2ccccc12)C(=O)N[C@@H](CCCNC(=N)N)C(N)=O)[C@@H](C)CC (Decanoyl-KKIRWR-NH2) | > 62.5 | 7.8 (≈ 7.5 µM) | – | 7.8 (≈ 7.5 µM) | – | –
CCCCCCCCCC(=O)N[C@@H](CCCCN)C(=O)N[C@@H](CCCCN)C(=O)N[C@@H](Cc1c[nH]c2ccccc12)C(=O)N[C@@H](CCCCN)C(N)=O (Decanoyl-KKWK-NH2) | > 62.5 | > 31.2 | – | 31.2 (≈ 42 µM) | – | –
CCCCCCCCCCCCCCCCCC(=O)N[C@@H](CCCCN)C(=O)N[C@H](C(=O)N[C@@H](Cc1c[nH]c2ccccc12)C(=O)N[C@@H](Cc1c[nH]c2ccccc12)C(=O)N[C@@H](CCCCN)C(N)=O)[C@@H](C)CC (Stearoyl-KIWWK-NH2) | > 62.5 | > 31.2 | – | > 31.2 | – | –
CCCCCCCCCCCCCCCCCC(=O)N[C@@H](CCCNC(=N)N)C(=O)N[C@@H](Cc1c[nH]c2ccccc12)C(=O)N[C@@H](CCCNC(=N)N)C(N)=O (Stearoyl-Arg-Trp-Arg-NH2) | > 62.5 | > 31.2 | – | > 31.2 | – | –
CCCCCCCCCC(=O)N[C@@H](CCCNC(=N)N)C(=O)N[C@@H](Cc1c[nH]c2ccccc12)C(=O)N[C@@H](Cc1c[nH]c2ccccc12)C(=O)N[C@@H](CCCNC(=N)N)C(N)=O (Decanoyl-RWWR-NH2) | 15.6 (≈ 18.2 µM) | 15.6 (≈ 18.2 µM) | – | 7.8 (≈ 9.11 µM) | – | –
CCCCCCCCCCCCCC(=O)N[C@@H](CCCCN)C(=O)N[C@H](C(=O)N[C@@H](CCCCN)C(=O)N[C@@H](CCCNC(=N)N)C(=O)N[C@@H](Cc1c[nH]c2ccccc12)C(=O)N[C@@H](CCCNC(=N)N)C(N)=O)[C@@H](C)CC (Myristoyl-KIKRWR-NH2) | > 62.5 | 15.6 (≈ 14.2 µM) | – | 3.9 (≈ 3.56 µM) | – | –
CCCCCCCCCC(=O)N[C@@H](CCCCN)C(=O)N[C@H](C(=O)N[C@@H](CCCCN)C(=O)N[C@@H](CCCNC(=N)N)C(=O)N[C@@H](Cc1c[nH]c2ccccc12)C(=O)N[C@@H](Cc1c[nH]c2ccccc12)C(=O)N[C@@H](CCCNC(=N)N)C(N)=O)[C@@H](C)CC (Decanoyl-KIKRWWR-NH2) | > 62.5 | 7.8 (≈ 6.36 µM) | – | 3.9 (≈ 3.18 µM) | – | –
CCCCCCCCCC(=O)N[C@@H](CCCCN)C(=O)N[C@@H](CCCNC(=N)N)C(=O)N[C@H](C(=O)N[C@@H](Cc1c[nH]c2ccccc12)C(=O)N[C@@H](Cc1c[nH]c2ccccc12)C(=O)N[C@@H](CCCNC(=N)N)C(N)=O)[C@@H](C)CC (Decanoyl-KRIWWR-NH2) | > 62.5 | 7.8 (≈ 7.11 µM) | – | 3.9 (≈ 3.55 µM) | – | –
CCCCCCCCCC(=O)N[C@@H](CCCCN)C(=O)N[C@H](C(=O)N[C@@H](CCCCN)C(=O)N[C@@H](CCCNC(=N)N)C(=O)N[C@@H](Cc1c[nH]c2ccccc12)C(=O)N[C@@H](CCCNC(=N)N)C(N)=O)[C@@H](C)CC (Decanoyl-KIKRWR-NH2) | > 62.5 | 31.2 (≈ 30 µM) | – | 15.6 (≈ 15 µM) | – | –

From ChEMBL document CHEMBL3286360, “Tuning the antimicrobial pharmacophore to enable discovery of short lipopeptides with multiple modes of action” (Eur J Med Chem, 2014)
